Residues, ends and D or L forms follow the SMILES beside them. *: point of attachment. Cbz = O=C(OCc1ccccc1)*
Assays:
[1] = system: ATZ in the HTO/Z cell line; test: ATZ levels in HTO/Z cells in the presence of proteasomal inhibitors with or without CBZ; format: cell-based, human; conditions: for levels of ATZ with proteasomal inhibitor alone: no CBZ; for levels of insoluble ATZ in the presence of CBZ: proteasomal inhibitor added for last 6 hours
Method: For experiments in which proteasomal inhibitors were used, MG132 was used at 30 μM and lactacystin at 10 μM for the last 6 hours of the incubation with CBZ or control. Cells that were incubated with MG132 or lactacystin alone served as control to validate that the proteasome was inhibited. For investigation of LC3 conversion, lysosomal inhibitors (E64D and pepstatin A at 20 μg/ml) were added to the medium for the last 4 hours of the incubation with CBZ or control. […] If the number of separate experiments done in the cell line models is not specifically indicated in the text or figure legend, at least 3 separate experiments were done in each case.
(§1) For immunoblot analysis to detect AT, GAPDH or LC3, cells were lysed in 50 mM Tris-HCl, 150 mM NaCl, 1% NP-40, pH 8.0. Protein levels were quantified using the BCA protein assay (Pierce Biotechnology, Rockford, Ill.). 10-50 μg samples were loaded onto 7.5% precast gels. PVDF membranes were blocked in TBS, 0.5% Tween 20 (TBST), 5% milk and then incubated with primary antibody in 5% milk TBST solution. Horseradish peroxidase anti-goat Ig or anti-mouse Ig (Jackson Labs, Bar Harbor, Me.) were used as secondary antibodies in TBST. Blots were visualized with Super Signal West Dura or West Femto from Pierce.

[2] = system: ATZ in the HTO/Z cell line; test: Steady state levels of ATZ in the HTO/Z cell line (immunoblot of insoluble and soluble fractions); format: cell-based, human; conditions: HTO/Z cells
Excerpt: Cell Lines The human epidermal HeLa cell line with doxycycline-regulated expression of ATZ (HTO/Z) has been described previously (1). HTO/M and HTO/Saar are HeLa cell lines with doxycycline-regulated expression of wild type AT and the AT Saar variant, respectively (1). A murine embryonic fibroblast cell line (MEF) with targeted disruption of Atg5 (2) was engineered for stable expression of ATZ using the previously described pRc/RSV-ATZ expression plasmid (3). A wild type MEF cell line was also engineered for stable expression of ATZ in the same way to serve as control. For experiments with CBZ, the inducible cell lines were cultured in the absence of doxycycline for at least 4 weeks for maximal expression of AT. The cells were then subcultured into separate monolayers in fresh complete growth medium and incubated for 48 hours in the absence or presence of CBZ or rapamycin (RAP). CBZ or RAP were added to the growth medium. The duration of incubation with CBZ was determined to be optimal at 48 hours based on experiments in which the duration was varied from 12 to 72 hours. Doses of CBZ were based on previous studies of its effects in cell lines (5,6). Doses of RAP were based on previous positive effects on autophagic disposal of polyglutamine-repeat proteins (7). After the incubation cells were homogenized and cell homogenates separated into insoluble and soluble fractions according to our previously established technique (8). Samples of 20 μgs each were subjected to immunoblot analysis for AT, BiP and GAPDH.
as §1

ATZ in the liver = test: Hepatic load of ATZ in vivo in PiZ×GFP-LC3 mice (immunoblot, globule histology); set-up: species or system mouse; conditions: PiZ mice, 2 mg/kg/day intraperitoneal for 2 weeks, FIG. 5C
Excerpt: Transgenic Mice PiZ mice that have been bred into the C57/BL6 background have been described previously (1). For the second and third series of experiments with CBZ we used PiZ mice that were re-derived onto the FVB/N background for a move into a new animal facility. The transgene that was used to generate the PiZ mouse is a genomic fragment of DNA that contains the coding regions of the ATZ gene together with introns and ˜2 kilobases of upstream and downstream flanking regions (10). […] In this perspective it is not an exact phenocopy of the classical form of AT deficiency. In particular it cannot be a model for the loss-of-function mechanisms associated with the classical form of AT deficiency. It is known to have abundant expression of ATZ in hepatocytes and other cell types that express ATZ in humans (11). In the liver there are abundant ATZ-containing intrahepatocytic globules and inflammation that is characteristic of what is seen in the human liver (11,12). […] Taken together, these observations indicate that the PiZ mouse is an appropriate model for the gain-of-toxic function mechanism that is responsible for liver damage in the classical form of AT deficiency. Indeed, the fact that these mice are endowed with endogenous AT function and therein normal levels of AT in the serum and body fluids make them an even more ‘pure’ model for liver damage by gain-of-toxic function. PiZ×GFP-LC3 mice, which generated green fluorescent autophagosomes, have been described previously (2). PiZ×IKKβ.hep were generated by mating of PiZ to IKKβ.hep, which has conditional hepatocyte-specific disruption of NF.B activation (M. Karin, 17). There is increased injury in the liver of these mice as evidenced by the hepatic hydroxyproline content, 153.3% of that in the PiZ mouse (FIG. 7).
Histology Sections of liver tissue were stained with hematoxylin and eosin, PAS, PAS after diastase treatment, TUNEL, PCNA, Ki67 and Sirius Red using standard techniques (18). Previous methods for staining with antibody to smooth muscle actin were used (19). Each was examined by the pathologist (GM) who was completely blinded to the experimental protocol. […] The number of inflammatory nodules, AT-containing globules and autophagosomes were each quantified blindly by counting cells in 6 microscopic fields of 10 different sections for each liver. The number of nuclei, as determined by Hoechst staining, was used to exclude the possibility that different numbers of cells were counted in liver sections from mice treated with CBZ as compared to controls. Hepatic hydroxyproline concentration was determined by a well-established protocol (20,21). […]
For immunoblot on liver, the liver was snap frozen in liquid nitrogen and stored at −80° C. […] Total protein concentration was measured by BCA assay (Pierce). […]

[3] = 48 hours incubation, immunoblot

CC(C)C[C@@H](C=O)NC(=O)[C@H](CC(C)C)NC(=O)[C@H](CC(C)C)NC(=O)OCc1ccccc1 [MG132] (Cbz-Leu-Leu-Leu-aldehyde)
levels of ATZ with proteasomal inhibitor alone [1]: Increased levels
levels of insoluble ATZ in the presence of CBZ [1]: no effect

NC(=O)N1c2ccccc2CC(=O)c2ccccc21 [OBZ, 10,11-dihydro-10-oxo-5H-dibenz[b,f]azepine-5-carboxamide]
steady-state levels of ATZ, insoluble fraction [2, 3]: marked decrease
steady-state levels of ATZ, soluble fraction [2, 3]: minimal effect
lowest dose with evident effect on insoluble ATZ ([2]; 48 hrs, FIG. 9): 0.1 µM

CC(=O)N[C@@H](CSC(=O)[C@]1([C@@H](O)C(C)C)NC(=O)[C@H](C)[C@@H]1O)C(=O)O [lactacystin]
levels of ATZ with proteasomal inhibitor alone [1]: Increased levels
reversal of the effect of CBZ on levels of soluble ATZ ([1]; lactacystin 10 μM for last 6 hours of CBZ incubation, mean SD, n=3): 23.1±14.0%
levels of insoluble ATZ in the presence of CBZ [1]: no effect

CO[C@H]1C[C@@H]2CC[C@@H](C)[C@@](O)(O2)C(=O)C(=O)N2CCCC[C@H]2C(=O)O[C@H]([C@H](C)C[C@@H]2CC[C@@H](O)[C@H](OC)C2)CC(=O)[C@H](C)/C=C(\C)[C@@H](O)[C@@H](OC)C(=O)[C@H](C)C[C@H](C)/C=C/C=C/C=C/1C [rapamycin]
hepatic ATZ levels (ATZ in the liver): no effect
ATZ levels (insoluble and soluble fractions) ([2]; 48-hour incubation, FIG. 1B): no effect

Reference: US9511074B2, “Methods of treating disorders associated with protein polymerization” (UNIVERSITY OF PITTSBURGH—OF THE COMMONWEALTH SYSTEM OF …, priority 2009, dated 2016)
